Test results as given in publication PMC11228983, “Rapid Protein–Ligand Affinity Determination by Photoinduced Hyperpolarized NMR” (Journal of the American Chemical Society, 2024).
Each block holds one molecule with its values, some of them ahead of it. Residues, ends and D or L forms follow the SMILES beside them.

How the values were obtained:
[1] = target: T1, PDZ2 domain of human tyrosine phosphatase 1E (hPTP1E) (Homo sapiens, UniProt Q12923); experiment: CIDNP-KD ligand titration (photo-CIDNP hyperpolarized NMR); type: binding
T1 construct: the constructs used for the PDZ2 domain of human tyrosine phosphatase 1E; polyhistidine (N); made in house; host or cells: Escherichia coli BL21 (DE3)
T1 sequence (Q12923 1368-1452 limits assumed): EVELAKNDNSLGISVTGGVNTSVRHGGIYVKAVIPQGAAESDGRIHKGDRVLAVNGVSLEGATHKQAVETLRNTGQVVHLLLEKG
From the text: For both STD-NMR and CIDNP-KD, there is an initial buildup of the signal at the start of the irradiation. However, the mechanisms underlying it and, thus, the kinetics of the signal buildup are different between the techniques. In STD-NMR, the saturation of L starts to build up as soon as the irradiation of the protein begins because preformed PL complexes can be immediately saturated. However, in CIDNP-KD, the preformed PL complexes are not CIDNP-active. Therefore, a free L must first be hyperpolarized and then bind to P before any signal reduction is observable. Therefore, we will use the AF(ti) corresponding to the steady state in contrast to STD-NMR, where one needs to measure the initial growth of the amplification factor to account for the ligand rebinding effects, which are significant at low ligand-to-protein ratios;[7] there is no need for an initial amplification factor in CIDNP-KD. During the photo-CIDNP process, only 0.1–1% of the ligand becomes hyperpolarized such that even at low ligand-to-protein ratios, the rebinding of L* is not a significant factor. Therefore, one needs to only assess the time to reach a steady-state amplification factor AFss, whose value is measured at a series of ligand concentrations, and then fit eq 5 to determine the proportionality factor α and the dissociation constant KD (Figure 1D,E) [drawing 5] 5 Affinities are obtained with the CIDNP-KD method as follows. The ligand of interest and the photosensitizer are prepared as titration series in the presence and absence of the target protein (Figure 1A) and measured with the Cryolight setup (Figure 1B,[23]), which allows the automatization with an autosampler. The photo-CIDNP signal builds up within 2 s (Figure 1C). It allows us to measure the irradiation time-dependent photo-CIDNP buildup of the ligand NMR signal in the presence and absence of protein in under a minute per sample (Figure S1A). These signal intensities are converted into AF(ti) with eq 4 (Figure S1B), giving an individual titration data point in the corresponding ligand titration curve (Figure S1C). The experiment is repeated at different ligand concentrations to build the titration curve fitted using eq 5, yielding the KD (Figure 1E,F). The entire measurement of all the photo-CIDNP spectra of 7 titration points (14 measurements) takes about 7 min in measurement time, plus the time to exchange the samples with the autosampler (Figure 1D).
Figure 2 presents the CIDNP-KD titration curves for each peptide with 20 μM PDZ2 in (A) and 10 μM PDZ2 in (B to D). The curves were obtained using the workflow described in the introduction for each proton of tryptophan that has sufficient photo-CIDNP signal enhancement and signal reduction upon binding (Figure S2).
Figure 2 Affinity determination of different peptides binding to the hPDZ2 domain by CIDNP-KD within a few minutes. Ligand titration of (A) WSAV, (B) WVSAV, (C) WQVSAV, and (D) WEQVSAV against the human tyrosine phosphatase PDZ2 domain (20 μM for WSAV, 10 μM for others) as described in Figures 1 and S1. The plots contain the titration curves for all protons of the tryptophan residue that undergo signal enhancement through photo-CIDNP and display sufficient quenching upon protein binding. The individual data points are measured with single-scan experiments with laser irradiation durations where t > tss: (A) 1500 ms, (B) 2000 ms, (C) 2000 ms, and (D) 2000 ms.
Expression and purification were carried out as in previously reported procedures. In short, expression in Escherichia coli cells (BL21 (DE3)) and purification via Ni-NTA chromatography as the constructs used for the PDZ2 domain of human tyrosine phosphatase 1E and human PIN1 both contained N-terminal polyhistidine tags. Both protein constructs were measured in an NMR buffer consisting of 50 mM NaCl, 20 mM KPO4, and 10% D2O at pH 6.8. For the control [^1H, ^15N]-HSQC experiments, the PDZ2 domain was expressed in ^15N-enriched minimal medium.[34],[43] […]

[2] = target: T1, PDZ2 domain of human tyrosine phosphatase 1E (hPTP1E); experiment: 2D [1H,15N]-HSQC chemical shift perturbation titration; type: binding; conditions: 30 μM 15N PDZ2, pH 6.8, 298 K
Experimental: We compared the affinities of the peptides obtained via CIDNP-KD with the state-of-the-art 2D [^1H, ^15N]-HSQC titration experiments measured with 30 μM PDZ2 (Figure S3).
Expression and purification were carried out as in previously reported procedures. In short, expression in Escherichia coli cells (BL21 (DE3)) and purification via Ni-NTA chromatography as the constructs used for the PDZ2 domain of human tyrosine phosphatase 1E and human PIN1 both contained N-terminal polyhistidine tags. Both protein constructs were measured in an NMR buffer consisting of 50 mM NaCl, 20 mM KPO4, and 10% D2O at pH 6.8. For the control [^1H, ^15N]-HSQC experiments, the PDZ2 domain was expressed in ^15N-enriched minimal medium.[34],[43]
All photo-CIDNP and STD-NMR experiments were recorded at 298 K on a Bruker Avance III HD 600 MHz spectrometer equipped with a cryoprobe. The [^15N, ^1H] – HSQC titration experiments of the PDZ2 domain were performed also at 298 K on another Bruker Avance IIII HD 600 MHz spectrometer equipped with a cryoprobe and SampleJet.
Peak picking was performed with the maximal peak picking tool of Mnova software. Plotting, fitting, and data analysis was done in RStudio with the workflow described above. The [^15N, ^1H]-HSQC reference affinities were analyzed with CCPNMR3.1.[62] The backbone assignment was taken from BMRB 34688.
Fig. S3: 2D [15N, 1H]-HSQC titration of peptides to hPDZ2 domain. The 2D [ 15N, 1H]-
HSQC spectra of the titration series in presence of 30 µM hPDZ2 domain and the
corresponding observed chemical shift difference of A74 plotted versus the peptide
(1 picture or pasted object on this page, not shown here)

WVSAV [3] = target: T2, WVSAV; experiment: CIDNP-KD NMR (Hβ)
T2 chain: WVSAV

WEQVSAV [4] = target: T3, WEQVSAV; experiment: CIDNP-KD NMR (Hβ)
T3 chain: WEQVSAV

WQVSAV [5] = target: T4, WQVSAV; experiment: CIDNP-KD NMR (Hβ)
T4 chain: WQVSAV

WVSAV [6] = target: T2, WVSAV; experiment: CIDNP-KD NMR (H2)
WEQVSAV [7] = target: T3, WEQVSAV; experiment: CIDNP-KD NMR (H2)
WQVSAV [8] = target: T4, WQVSAV; experiment: CIDNP-KD NMR (H2)
WVSAV [9] = target: T2, WVSAV; experiment: CIDNP-KD NMR (H4)
WQVSAV [10] = target: T4, WQVSAV; experiment: CIDNP-KD NMR (H4)
WEQVSAV [11] = target: T3, WEQVSAV; experiment: CIDNP-KD NMR (H6)
ENEQVSAV (RA-GEF2) [12] = target: T5, ENEQVSAV (RA-GEF2) (Homo sapiens); experiment: competition CIDNP-KD NMR (H4)
T5 chain: ENEQVSAV

ENEQVSAV (RA-GEF2) [13] = target: T5, ENEQVSAV (RA-GEF2); experiment: competition CIDNP-KD NMR (Hβ)
QVSAV (RA-GEF2) [14] = target: T6, QVSAV (RA-GEF2) (Homo sapiens); experiment: competition CIDNP-KD NMR (Hβ)
T6 chain: QVSAV

ENEQVSAV (RA-GEF2) [15] = target: T5, ENEQVSAV (RA-GEF2); experiment: [1H,15N]-HSQC titration (A74)
WVSAV [16] = target: T2, WVSAV; experiment: [1H,15N]-HSQC titration (A74)
WEQVSAV [17] = target: T3, WEQVSAV; experiment: [1H,15N]-HSQC titration (A74)
WQVSAV [18] = target: T4, WQVSAV; experiment: [1H,15N]-HSQC titration (A74)
QVSAV (RA-GEF2) [19] = target: T6, QVSAV (RA-GEF2); experiment: [1H,15N]-HSQC titration (A74)
[20] = range over Hβ/H2/H4/H6 fits, read-out: CIDNP-KD affinity, range over the observed tryptophan protons
[21] = tryptophan H2 signal, 20 μM PDZ2 for WSAV, 10 μM for others, pH 6.8, 298 K, H2 overlaps H6 for WVSAV and WQVSAV, read-out: CIDNP-KD, H2
[22] = tryptophan H4 signal, 20 μM PDZ2 for WSAV, 10 μM for others, pH 6.8, 298 K, read-out: CIDNP-KD, H4
[23] = tryptophan H6 signal, 20 μM PDZ2 for WSAV, 10 μM for others, pH 6.8, 298 K, read-out: CIDNP-KD, H6
[24] = tryptophan Hβ signal, 20 μM PDZ2 for WSAV, 10 μM for others, 25 μM fluorescein, 450 nm, 50 mM NaCl, 20 mM KPO4, 10% D2O, pH 6.8, 298 K, single-scan, steady state, fit ± error, read-out: CIDNP-KD, Hβ
[25] = 15N–1H moiety of A74, read-out: [1H,15N]-HSQC–CSP KD, NH of A74
[26] = range over residues, read-out: [1H,15N]-HSQC–CSP KD range of all residues showing chemical shift perturbation

Kd [1, 20]: 55 to 82 µM
Kd [1, 21]: 63 ± 28 µM
Kd [1, 22]: 63 ± 16 µM
Kd [1, 23]: 55 ± 17 µM
Kd [1, 24]: 82 ± 33 µM
Kd [2, 25]: 16 ± 5 µM
Kd [2, 26]: 10 to 70 µM
Molecule: CC(C)[C@H](NC(=O)[C@H](C)NC(=O)[C@H](CO)NC(=O)[C@@H](NC(=O)[C@H](CCC(N)=O)NC(=O)[C@H](CCC(=O)O)NC(=O)[C@@H](N)Cc1c[nH]c2ccccc12)C(C)C)C(=O)O [WEQVSAV] (H-WEQVSAV-OH)

Kd [1, 20]: 19 to 200 µM
Kd [1, 21]: 74 ± 14 µM
Kd [1, 22]: 230 ± 30 µM
Kd [1, 24]: 27 ± 16 µM
Kd [2, 25]: 68 ± 11 µM
Kd [2, 26]: 20 to 280 µM
Molecule: CC(C)[C@H](NC(=O)[C@H](C)NC(=O)[C@H](CO)NC(=O)[C@@H](NC(=O)[C@H](CCC(N)=O)NC(=O)[C@@H](N)Cc1c[nH]c2ccccc12)C(C)C)C(=O)O [WQVSAV] (H-WQVSAV-OH)

Kd [1, 20]: 3100 to 3300 µM
Kd [1, 21]: 3300 ± 2300 µM
Kd [1, 22]: 3100 ± 1500 µM
Kd [1, 23]: 3100 ± 3200 µM
Kd [2, 25]: 1320 ± 160 µM
Kd [2, 26]: 200 to 4000 µM
Molecule: CC(C)[C@H](NC(=O)[C@H](C)NC(=O)[C@H](CO)NC(=O)[C@@H](N)Cc1c[nH]c2ccccc12)C(=O)O [WSAV] (H-WSAV-OH)

Kd [1, 20]: 80 to 330 µM
Kd [1, 21]: 80 ± 60 µM
Kd [1, 22]: 330 ± 80 µM
Kd [1, 24]: 170 ± 40 µM
Kd [2, 25]: 108 ± 10 µM
Kd [2, 26]: 50 to 400 µM
Molecule: CC(C)[C@H](NC(=O)[C@H](C)NC(=O)[C@H](CO)NC(=O)[C@@H](NC(=O)[C@@H](N)Cc1c[nH]c2ccccc12)C(C)C)C(=O)O [WVSAV] (H-WVSAV-OH)

Kd (WVSAV [3]): 170 µM
Kd (WEQVSAV [4]): 82 µM
Kd (WQVSAV [5]): 27 µM
Kd (WVSAV [6]): 80 µM
Kd (WEQVSAV [7]): 63 µM
Kd (WQVSAV [8]): 74 µM
Kd (WVSAV [9]): 330 µM
Kd (WQVSAV [10]): 230 µM
Kd (WEQVSAV [11]): 55 µM
Kd (ENEQVSAV (RA-GEF2) [12]): 91 µM
Kd (ENEQVSAV (RA-GEF2) [13]): 35 µM
Kd (QVSAV (RA-GEF2) [14]): 580 µM
Kd (ENEQVSAV (RA-GEF2) [15]): 17 µM
Kd (WVSAV [16]): 108 µM
Kd (WEQVSAV [17]): 16 µM
Kd (WQVSAV [18]): 68 µM
Kd (QVSAV (RA-GEF2) [19]): 155 µM
B1: PDZ2 domain of human tyrosine phosphatase 1E (hPTP1E) PDZ2 (protein)
chain: DIFEVELAKNDNSLGISVTGGVNTSVRHGGIYVKAVIPQGAAESDGRIHKGDRVLAVNGVSLEGATHKQAVETLRNTGQVVHLLLEKGQSP
